The test system of the experiment is T1, F1 ^anc_core.
T1 construct: gene atpD; alpha: TF1 residues 1-94 + alpha^anc NBD/CTD; beta: TF1 residues 1-78 + beta^anc NBD/CTD; N-terminal His-tags; alpha3beta3gamma; expressed in E. coli JM103 delta-unc; with ATP synthase gamma chain
The experiment in a line: single-molecule rotation assay, […] nm gold colloid, Michaelis-Menten fit. The class given is biochemical, synthetic construct. Particulars: 50 mM Hepes-KOH pH 7.5, 100 mM KCl.

We go through two compounds from paper PMC12550136, “Functional and structural characterization of F1 ‐ATPase with common ancestral core domains in stator ring” (Protein Science : A Publication of the Protein Society, 2025).

The structures appear in SMILES notation.

The Km is the concentration of substrate that gives half-maximal velocity. For `Nc1ncnc2c1ncn2[C@@H]1O[C@H](COP(=O)(O)OP(=O)(O)OP(=O)(O)O)[C@@H](O)[C@H]1O` [ATP], for the setting “5 mM MgCl2, ATP-regenerating system, room temperature”, the Michaelis constant (Km) stood at 2.6 µM.

On to `Nc1ncnc2c1ncn2[C@@H]1O[C@H](COP(=O)(O)OP(=O)(O)OP(O)(O)=S)[C@@H](O)[C@H]1O` [ATPγS], for which the Km (5 mM MgCl2, room temperature) stood at 0.68 µM.
